Assay results published in US6068987A, “Histone deacetylase as target for antiprotozoal agents” (Merck & Co., Inc., priority 1999, dated 2000).

What was measured:
[1] = tested on: histone deacetylase (E. tenella oocyst S100 lysate); assay: Competitive binding assay with 3H-N-desmethoxyapicidin, E. tenella S100 lysate; details: for selectivity for E. tenella over chicken liver lysate in binding assay: E. tenella versus host (chicken liver) lysate
Procedure: E. tenella oocysts. Approximately 2×10^9 E. Tenella oocysts are suspended in 5 ml of PBS/0.1 mM PMSF, 4 mls of an equal mixture (vol/vol) of 4.0 and 1.0 mm glass beads is added. The glass bead-oocyst mixture is then shaken for 20 minutes to cause disruption of the oocysts. The efficiency of breakage is checked microscopically. The resulting homogenate is separated from the glass beads and centrifuged at 3000×g for 10 min. The supernatant is then subjected to an additional centrifugation at 100,000 g for 1 hr. The pellet is discarded and the supernatant, referred to as the E. Tenella S100 fraction, is retained for binding assays. After estimating the protein concentration, the supernatant (S100) is aliquoted and frozen at -80° C.
(§1) Each assay tube contains a final volume of 1 ml with 1.3 ng/ml of ^3 H-N-desmethoxyapicidin, 150-200 μg of the appropriate S100 supernatant and concentrations of potential HDA inhibitors from 0.001-10 μg/ml.
(§2) (i) labeled substrate. 2-^3 H-N-desmethoxyapicidin (18.69 mCi/mg) is diluted 1:100 in ethanol, and 2 μl added per 1 ml of 50 mM HEPES pH 7.4 with 0.05% Triton®-X100 (HEPES/Triton) is added. This provides 1.3 ng 2-^3 H-N-desmethoxyapicidin /ml of assay (54,000 DPM/ml.)
(§3) (ii) potential HDA inhibitors. The stocks of the test compounds are made up to 2 mg/ml dimethylsulfoxide (DMSO). The stock solution is diluted to 1000, 100, 10, 1 and 0.1 μg/ml in ethanol where a full titration is required. Ethanol is used as a negative control, a 100 μg/ml solution of unlabeled N-desmethoxyapicidin is used as a positive control. Six μl of the test compound solution, the positive and negative controls are used for the assay.
(§4) (iii) supernatant from (a). The S100 sample is diluted to a concentration of 3.0 mg protein/ml (chick liver) or 4 mg protein/ml (parasite) in the HEPES/Triton® buffer. Fifty μl is used for the assay.
(§5) Stock solutions of potential HDA inhibitors (ii) are diluted into 50 mM HEPES/Triton® buffer to achieve a final concentration of test compound in the range of […]. ^3 H-N-desmethoxyapicidin is added to a final concentration of 1.3 ng/ml. 50 μl of parasite or chick liver S100 solution (150-200 μg) is added to each tube. The assay mixture is incubated for 1 hr at 25° C. and then aspirated through Whatman GF/B filters impregnated with polyethylenimine (filters prepared in advance by soaking in 2 ml of polyethylenimine per 330 mls water at room temp for 1 hour). Assay tubes were rinsed 3 times with 1-2 mls of HEPES/Triton® and aspirated through the same filter. The filter is then dried and counted in scintillant.

[2] = molecular target: histone deacetylase (chicken liver S100 lysate); assay: Competitive binding assay with 3H-N-desmethoxyapicidin, chick liver S100 lysate; details: for IC50: displacement of 3H-N-desmethoxyapicidin, chick liver S100
Procedure: Chick Liver. Livers from 3-5 three week old chickens are collected, rinsed in ice cold phosphate buffered saline (pH 7.4), diced into small pieces and rinsed again 3-4 times with ice cold 50 mM N-2-hydroxyethylpiperazine-N'-2-ethanesulfonic acid (HEPES) (pH 7.4) containing 0.1 mM phenylmethanesulfonyl fluoride (PMSF). The tissue is then resuspended in HEPES buffer, homogenized in a polytron homogenizer and centrifuged at 3000×g for 10 min. The supernatant is then subjected to an additional 100,000 g centifugation for 1 hour. The pellet and the floating layer of lipid are discarded and the supernatant, referred to as the chick liver S100 fraction, is retained for binding assays. After estimating the protein concentration, the supernatant (S100) is aliquoted and frozen at -80° C.
as §1, §2, §3, §4, §5

[3] = tested on: P. falciparum histones; assay: Histone acetylation state in P. falciparum (14C acetate labeling, AUT gel); assay type: cell-based, Plasmodium falciparum; details: infected red blood cells, 14C sodium acetate, 2 hours, FIG. 2
Procedure: Acid urea triton (AUT) polyacrylarnide gels were performed according to the methods of Alfageme et al (1974) J. Biol. Chem. 249, 3729, with modifications as described in Lennox and Cohen (Methods in Enzymology, 170, 532-549). For optimal resolution of HeLa cell and Plasmodium falciparum histones the separation gel contained 7.5M urea, 12% acrylamide, 0.38% Triton® X 100, 0.08% bis acrylamide, and 0.87M acetic acid. The loading gels contained 7.5M urea, 0.37% Triton® X 100, 6% acrylamide, 0.04% bis acrylamide and 0.87M acetic acid. Gels were run in 1M acetic acid. Gels were pre-electrophoresed at 350V for 1 hour and run at 450 V for 3.5 hours. Gels were either stained with Coomassie Brilliant Blue R in 7% acetic acid, 20% methanol and then destained in 7% acetic acid and 20% methanol, or treated with Enlightening (from New England Nuclear), dried and radiolabel detected by fluorography.
Approximately 1×10^9 P. falciparum infected red blood cells (about 60% parasitized) were resuspended in 10 ml of RPMI 1640 containing various concentrations of test compounds and 250 μCi^14 C sodium acetate and incubated at 37° C. for 2 hours. The cells were then washed 3 time with PBS and histones were prepared as described below.
Histones were prepared according to the method of Cary et al (1994) Parasitology Research, 80, 255-258. […]

[4] = tested on: HeLa cell histones; assay: Histone acetylation state in HeLa cells (AUT gel electrophoresis); assay type: cell-based, human; details: HeLa cells treated 4 hrs, FIG. 1, relative to untreated cells
Procedure: About 2×10^7 HeLa cells growing at 37 C were treated with various compounds in the standard tissue culture medium (MEM containing 10% fetal calf serum) for 4 hrs. Cells were then removed from the flask by scraping in PBS in a total volume of about 10 mls. The cells were washed twice in PBS and resuspended in about 3 mls lysis buffer (Lysis buffer; 0.45% Nonidet® P-40, 10 mM tris, 10 mM NaCl, 5 mM MgCl, 0.1 mM EGTA, 0.1 mM PMSF). The suspension was mixed by vortexing for 10 seconds, incubated on ice for 15 minutes and nuclei were pelleted by centrifugation through a 1 ml cushion of 30% sucrose in lysis buffer at 1300×g for 10 minutes. The supernatant was discarded and the nuclei were then resuspended in 1.0 ml water. H2 SO4 was added to a final concentration of 0.4M and the nuclear suspension was incubated on ice for 30 min. and then pelleted by centrifugation at 13,000×g for 10 miunutes. […]
Acid urea triton (AUT) polyacrylarnide gels were performed according to the methods of Alfageme et al (1974) J. Biol. Chem. 249, 3729, with modifications as described in Lennox and Cohen (Methods in Enzymology, 170, 532-549). […] Gels were either stained with Coomassie Brilliant Blue R in 7% acetic acid, 20% methanol and then destained in 7% acetic acid and 20% methanol, or treated with Enlightening (from New England Nuclear), dried and radiolabel detected by fluorography.

[5] = tested on: E. tenella; assay: In vitro antiparasitic activity against E. tenella; assay type: cell-based, Eimeria tenella
Text: ^(1) Generally following the procedure described in Crane, Schmatz, Stevens, Habbersett and Murray. Eimeria tenella: in vitro development in irradiated bovine kidney cells.(1984) Parasitology 88: 521-530.

[6] = tested on: P. falciparum; assay: In vitro antiparasitic activity against P. falciparum; assay type: cell-based, Plasmodium falciparum
Text: ^(2) Generally following the procedure described in Desjardins et al, "Quantitative Assessment of Antimalarial Activity In Vitro by a Semiautomated Microdilution Technique" Antimicrobial Agents and Chemotherapy, 1979, 16:710-718.

[7] = tested on: histone deacetylase (chicken liver extracts); assay: Histone deacetylase inhibition assay (Assay 1), chicken liver extract; assay type: biochemical
Procedure: (§6) The standard assay contained in a total volume of 40 μL: 400 nmol HEPES-sodium, pH 7.4, 100 pmol of the substrate [AcGly-Ala-Lys(ε-^14 C-Ac)-Arg-His-Arg-Lys(ε-^14 C-Ac)-ValNH2 ] (see Kervabon et al (1979) FEBS Letters 106: 93-96) having a specific activity of approx. 114 mCi/mmol, and a source of histone deacetylase (HDAase) activity. The amount of HDAase added was chosen such that ≤20% of the substrate was consumed during the assay. The reaction was initiated by enzyme addition and allowed to proceed for 60 min at 41°. At 60 min, the reaction was terminated by the addition of a 50% slurry of Amberlite AG 50 W×4 cation exchange resin, sodium form (200-400 mesh) in 25 mM sodium acetate buffer, pH 4.2 (200 μL). The resin binds both remaining substrate and the (partially) deacetylated peptidyl products. The quenched reaction was then incubated for at least 30 min at 25° with occassional mixing, diluted with additional 25 mM sodium acetate buffer, pH 4.2 (760 μL; final volume 1000 μL), incubated for a minimum of an additional 30 min at 25° with occassional mixing, and then centrifuged at 10,000×g for 1 min. An aliquot of the supernatant (800 μL) containing the enzymatically released ^14 C-acetate was removed, mixed with Aquasol 2 liquid scintillation counter (LSC) cocktail (10 mL), and counted in a Beckman model LS-5801 LSC. […]

[8] = tested on: Eimeria HDAase (histone deacetylase); assay: Histone deacetylase inhibition assay (Assay 1), E. tenella extract; assay type: biochemical, Eimeria tenella
Procedure: as §6

| Compound | selectivity for E. tenella over chicken liver lysate in binding assay [1] | IC50 [2] | hyperacetylation of P. falciparum histones [3] | hyperacetylation of HeLa cell histones (shift in histone gel profile) [4] | further results |
| --- | --- | --- | --- | --- | --- |
| CCC(=O)CCCCC[C@@H]1NC(=O)[C@H]2CCCCN2C(=O)[C@H](C(C)CC)NC(=O)[C@H](c2cn(OC)c3ccccc3c2=O)NC1=O (stereo partly shown) [Compound IIA] | selective | > 1000 nM |  |  |  |
| CCC(=O)CCCCC[C@@H]1NC(=O)[C@H]2CCCCN2C(=O)[C@H](C(C)CC)NC(=O)[C@H](c2c[nH]c3ccccc3c2=O)NC1=O (stereo partly shown) [Compound IIB] | selective | > 1000 nM |  |  |  |
| CCC(=O)CCCCC[C@@H]1NC(=O)[C@H]2CCCCN2C(=O)[C@H]([C@@H](C)CC)NC(=O)[C@H](Cc2cn(OC)c3ccccc23)NC1=O [Compound Ia, Apicidin] |  |  | cause hyperacetylation | cause a distinct shift in the histone gel profiles |  |
| CC(/C=C/C(=O)O)=C\[C@@H](C)C(=O)c1ccc(N(C)C)cc1 [trichostatic acid] |  | > 1000 nM |  |  | activity against E. tenella (in words) [5]: not active; activity against P. falciparum (in words) [6]: not active; activity in binding assay (in words), E. tenella lysate [1]: no activity; IC50 ([1]; displacement of 3H-N-desmethoxyapicidin, E. tenella S100): > 1000 nM; activity in enzyme inhibition assay (in words), chicken liver extract [7]: inactive; activity in binding assay (in words), chicken liver lysate [2]: no activity; activity in enzyme inhibition assay (in words), E. tenella extract [8]: inactive |
| CC(/C=C/C(=O)NO)=C\[C@@H](C)C(=O)c1ccc(N(C)C)cc1 [trichostatin] |  |  | cause hyperacetylation | cause a distinct shift in the histone gel profiles |  |
